The test system of series [1] is Trypanosoma cruzi. The series is described as follows: Induction of apoptosis in Trypanosoma cruzi Y strain trypomastigotes assessed as fold increase in early apoptosis incubated for 24 hrs by Annexin V-FITC/7AAD staining based flow cytometry. Format: functional.
Series [2] can be described thus: Selectivity index, ratio of CC50 for cytotoxicity against mouse RAW264.7 cells to IC50 for antitrypanosomal activity against Trypanosoma cruzi Tulahuen amastigotes transfected in L929 cells assessed as inhibition of parasite growth. The class given is toxicity, cell-based. The settings on record: read-out: Ratio CC50/IC50.
The subject of series [3] is Trypanosoma cruzi. In words: Induction of DNA damage in Trypanosoma cruzi Y strain trypomastigotes at 2 times IC50 incubated for 24 hrs by acridine orange staining based flow cytometry. The class given is functional, organism-based. (In flow cytometry, cells or beads pass a laser one at a time.)
In series [4] the test system is Trypanosoma cruzi. In words: Induction of apoptosis in Trypanosoma cruzi Y strain trypomastigotes assessed as late apoptosis at 9.64 uM incubated for 24 hrs by Annexin V-FITC/7AAD staining based flow cytometry. Format: functional, organism-based.
A short description of series [5]: Cytotoxicity against mouse RAW264.7 cells assessed as inhibition of cell growth incubated for 72 hrs by MTT assay. Format: toxicity, cell-based.
The test system of series [6] is Trypanosoma cruzi. The series is described as follows: Induction of apoptosis in Trypanosoma cruzi Y strain trypomastigotes assessed as early apoptosis at 2 times IC50 incubated for 24 hrs by Annexin V-FITC/7AAD staining based flow cytometry. The class given is functional, organism-based.
Series [7] has as its system Trypanosoma cruzi. In words: Antitrypanosomal activity against Trypanosoma cruzi Tulahuen amastigotes transfected in L929 cells assessed as inhibition of parasite growth incubated for 96 hrs by CPRG based spectrophotometric analysis. Format: functional, organism-based. The settings on record: L929, 96 h.
Series [8] deals with Trypanosoma cruzi. In words: Induction of apoptosis in Trypanosoma cruzi Y strain trypomastigotes assessed as fold increase in late apoptosis incubated for 24 hrs by Annexin V-FITC/7AAD staining based flow cytometry. Format: functional.
Series [9] can be described thus: Selectivity index, ratio of CC50 for cytotoxicity against mouse RAW264.7 cells to IC50 for antitrypanosomal activity against Trypanosoma cruzi Dm28 epimastigotes assessed as inhibition of parasite growth. The class given is toxicity, cell-based. The settings on record: read-out: Ratio CC50/IC50.
For series [10], the system named is Trypanosoma cruzi. The series is described as follows: Antitrypanosomal activity against Trypanosoma cruzi Y strain trypomastigotes transfected in African green monkey Vero cells assessed as inhibition of parasite growth incubated for 24 hrs by Neubauer chamber based analysis. The class given is functional, organism-based.
In series [11] the test system is Trypanosoma cruzi. The series is described as follows: Induction of apoptosis in Trypanosoma cruzi Y strain trypomastigotes assessed as necrosis at 9.64 uM incubated for 24 hrs by Annexin V-FITC/7AAD staining based flow cytometry. Format: functional, organism-based.
Series [12] deals with Trypanosoma cruzi. In words: Induction of apoptosis in Trypanosoma cruzi Y strain trypomastigotes assessed as early apoptosis at 1 times IC50 incubated for 24 hrs by Annexin V-FITC/7AAD staining based flow cytometry. The class given is functional, organism-based.
The subject of series [13] is Trypanosoma cruzi. The series is described as follows: Induction of apoptosis in Trypanosoma cruzi Y strain trypomastigotes assessed as late apoptosis at 1 times IC50 incubated for 24 hrs by Annexin V-FITC/7AAD staining based flow cytometry. Format: functional, organism-based.
Series [14] relates to Trypanosoma cruzi. In words: Induction of mitochondrial membrane potential loss in Trypanosoma cruzi Y strain trypomastigotes at 1 times IC50 incubated for 24 hrs by Rhodamine 123 staining based flow cytometry. Format: organism-based.
Series [15] concerns Trypanosoma cruzi. The series is described as follows: Induction of mitochondrial membrane potential loss in Trypanosoma cruzi Y strain trypomastigotes at 2 times IC50 incubated for 24 hrs by Rhodamine 123 staining based flow cytometry. Format: organism-based.
The nature of series [16]: Selectivity index, ratio of CC50 for cytotoxicity against mouse RAW264.7 cells to IC50 for antitrypanosomal activity against Trypanosoma cruzi Y strain trypomastigotes transfected in African green monkey Vero cells assessed as inhibition of parasite growth. Format: toxicity, cell-based. Particulars: read-out: Ratio CC50/IC50.
The subject of series [17] is Trypanosoma cruzi. The series is described as follows: Antitrypanosomal activity against Trypanosoma cruzi Dm28 epimastigotes assessed as inhibition of parasite growth incubated for 96 hrs by Neubauer chamber based analysis. The class given is functional, organism-based. The settings on record: Dm28, 96 h.
The test system of series [18] is Trypanosoma cruzi. The series is described as follows: Induction of apoptosis in Trypanosoma cruzi Y strain trypomastigotes assessed as necrosis at 1 times IC50 incubated for 24 hrs by Annexin V-FITC/7AAD staining based flow cytometry. Format: functional, organism-based.

Active and inactive are the calls of the source. No cut-off for these calls is given here.

One may read the CC50 as the concentration that lowers cell viability or growth by half. Broadly, the IC50 is the concentration at which inhibition is half-maximal. On to `C/C(=N\Nc1nc(-c2ccc(Cl)c(Cl)c2)cs1)c1ccc(Cl)cc1Cl`, for which the “fold change (FC)” value stood at 5 in the series with Trypanosoma cruzi [1] and 4 in the series on Trypanosoma cruzi [8]. Also, the selectivity ratio in [2] is 3.44; in series [9], 15.2; in series [16], 20.2. For the same compound, the outcome in the series on Trypanosoma cruzi [3], in the series on Trypanosoma cruzi [4], with Trypanosoma cruzi [6], with Trypanosoma cruzi [11], in the series on Trypanosoma cruzi [12] and in the series with Trypanosoma cruzi [13] was Active. Besides, the outcome with Trypanosoma cruzi [18] was Active. Moreover, the CC50 at 72 h in [5] was 97.3 µM. The figures for the IC50 with Trypanosoma cruzi [7], in the series with Trypanosoma cruzi [10] and in the series on Trypanosoma cruzi [17] were 28.3 µM, 4.82 µM and 6.41 µM, respectively. Further, the result with Trypanosoma cruzi [14] and in the series on Trypanosoma cruzi [15] was inactive.

The values above are taken from ChEMBL document CHEMBL5620370, “1,3-Thiazole derivatives as privileged structures for anti-Trypanosoma cruzi activity: Rational design, synthesis, in silico and in vitro studies” (Eur J Med Chem, 2023).
